We go through 5 compounds from patent publication US11629121B2, “Benzylideneacetone derivative and use thereof” (KORPHARM CO., LTD., priority 2017, dated 2023).

Like-named read-outs stand apart in the source and are kept apart here.

In general, IC50 refers to the midpoint of a concentration-inhibition curve.

The subject of series [1] is osteoclast differentiation from bone marrow cells (RANKL and M-CSF). The series can be described thus: TRAP assay, osteoclast differentiation and proliferation. Type of series: cell-based, C57BL/6 mice. The settings on record: TRAP-positive multinucleated cells, mouse bone marrow cells, 6-7 days, read-out: osteoclast differentiation inhibitory activity IC50. On the procedure: The specific method of the TRAP assay is as follows:
The tibia and femur were aseptically excised from 6 to 8 weeks old male C57BL/6 mice, and bone marrow cells were collected aseptically with a syringe (21G, Korea Green Cross). Bone marrow cells were suspended in 500 μl of -MEM medium (Gibco BRL Co.) containing sodium bicarbonate (2.0 g/L), streptomycin (100 mg/L) and penicillin ([…]), and aliquoted into a 48-well plate, and assay was carried out with triplicate. The progenitor cells of osteoclasts, monocytes, were isolated and treated with RANKL and M-CSF, which are differentiation promoters, to differentiate into osteoclasts within 5-7 days.
1) Sample preparation: KP2 to KP8 (0.5 μM, 1 μM, 5 μM or 10 μM), Fosamax (0.5 μM, 1 μM, 5 μM, or 10 μM) and the like were dissolved in DMSO (dimethylsulfoxide) or sterile distilled water at appropriate concentrations, respectively.
2) Sample administration: The Samples were continuously administered to the medium at 1:20 (v/v; 25 μL of sample per 500 μL of medium) from the first day of culture of bone marrow cells, and the medium was replaced at 3 days intervals.
3) Osteoclast differentiation measurement: Osteoclasts were defined as TRAP-positive multinucleated cells stained with TRAP. […] The reaction reagents were stored in the refrigerator until use.
Bone marrow cells were cultured in a medium containing differentiation factors for 6-7 days, and then the medium was removed, washed with PBS, and fixed in PBS containing 10% formalin for 2-5 minutes. After fixed for 1 minute with a 1:1 mixture of ethanol and acetone, and dried. The fixed cells were treated with TRAP staining solution for 60 minutes at 37° C. with light blocking, washed with PBS, and then stained with Hematoxylin.
Among the TRAP-positive cells in the microscope field, cells with two or more nuclei were determined as osteoclasts and the number of cells was measured.

Series [2] relates to RAW264.7 rat macrophage cell line. The series is described as follows: MTT assay, normal cells RAW264.7. Type of series: cell-based. The source says: (§1) The cytotoxicity against normal cells and cancer cells was confirmed using the MTT assay for the novel compounds KP2 to KP8 prepared in Example 1.
(§2) MTT assay method is as follows:
(§3) Normal cells (RAW264.7 rat macrophage cell line (osteoblast progenitor cell) and NIH3T3 mouse fibroblast line) and cancer cells (AGS human gastric cancer cell line, A549 human lung cancer cell line, HepG2 human liver cancer cell line, HCT116 human colon cancer cell line, PC3 human prostate cancer Cell line, Caki-1 human kidney cancer cell line, T24 human bladder cancer cell line, HT1080 human fibrosarcoma cell line, B16F10 mouse melanoma cell line) were cultured in 5% CO2 in 96-well plates containing DMEM with 10% FBS (fetal bovine serum). After incubation, KP2 to KP8 and controls (osmundacetone and 4-hydroxybenzalacetone) were added to the cell medium and incubated for 48 hours. Thereafter, 100 μl of MTT (0.5 mg/mL phosphate buffered saline) was added, followed by incubation for 2 hours. 100 μl of DMSO was added to each well, followed by incubation for 10 minutes, and the absorbance was measured at 550 nm using a microplate reader (SPCTRA MAX 340PC, Molecular Devices, USA). Absorbance is calculated by the formula below as an indicator of the number of cells that survived, and reproducibility was confirmed by three experiments.
(§4) The rate of cell proliferation (%)=OD550(sample)/OD550(control)

Series [3] relates to T24 human bladder cancer cell line. The series can be described thus: MTT assay, cancer cells T24. Format: cell-based. Conditions: MTT assay, 48 hours, T24.
Description: as §1, §2, §3, §4
For orientation: Tetrazolium dyes change colour on reduction, which living cells bring about.

For series [4], the system named is NIH3T3 mouse fibroblast line. The series can be described thus: MTT assay, normal cells NIH3T3. Format: cell-based.
Description: as §1, §2, §3, §4

For series [5], the system named is AGS human gastric cancer cell line. The series can be described thus: MTT assay, cancer cells AGS. The settings on record: 48 hours. Type of series: cell-based.
Description: as §1, §2, §3, §4

Series [6] deals with B16F10 mouse melanoma cell line. The series can be described thus: MTT assay, cancer cells B16F10. Format: cell-based. The settings on record: 48 hours, H16F10.
Description: as §1, §2, §3, §4

Series [7] deals with PC3 human prostate cancer Cell line. The series can be described thus: MTT assay, cancer cells PC3. Type of series: cell-based. The settings on record: 48 hours.
Description: as §1, §2, §3, §4

For series [8], the system named is Caki-1 human kidney cancer cell line. The series is described as follows: MTT assay, cancer cells Caki-1. Type of series: cell-based. Conditions: 48 hours.
Description: as §1, §2, §3, §4

The test system of series [9] is HCT116 human colon cancer cell line. The series is described as follows: MTT assay, cancer cells HCT116. Format: cell-based. Conditions: for LD63 Cancer cell HCT116: MTT assay, 48 hours.
Description: as §1, §2, §3, §4

The subject of series [10] is osteoblasts (mouse MC3T3-E1). The series is described as follows: ALP (Alkaline phosphatase) assay, osteoblast activity. Format: cell-based. Conditions: for ALP activity / osteoblast activation versus control: 10 μM and 50 μM; for % Activation of ALP activity: MC3T3-E1, 14 days, percentage against control. On the procedure: Effect of KP4 to KP6 on proliferation and differentiation of osteoblast were confirmed using ALP (Alkaline phosphatase) assay, a method for measuring osteoblast activity.
Alkaline phosphatase (ALP), which is present in the cell membranes of osteoblasts, is known as a marker of osteoblast activity and is a regulator of inorganic phosphate transport, cell division or differentiation during calcification. Therefore, ALP activity was measured to determine the effect of the compounds of the present invention on the activity of osteoblasts. ALP activity was indirectly calculated by measuring the amount of p-nitrophenol, which is produced from hydrolysis of p-nitrophenyl phosphate (pNPP, Sigma, St. Louis, Mo., USA) in which ALP act as a catalyst, using a microplate reader at 405 nm wavelength.
Specifically, osteoblasts (mouse MC3T3-E1) were aliquoted into a 96-well plate (3×10^3 cells/100 μL/well) with α-MEM medium containing ascorbic acid (50 μg/mL) and 10 mM β-glycerophosphate, a differentiation factors of osteoblast. Then, KP4 to KP6 of the present invention, and osmundacetone were added at a final concentration of 10 μM and 50 μM, followed by changing medium every 72 hours and incubating for 14 days. After 14 days, the culture medium was removed from each well, washed three times with PBS, lysed with 0.2% Nonidet P-40/10 mmol/L MgCl2, and then treated ultrasonic wave with sosonifier cell disrupter (Model W-380, Heat Systems-Ultrasonics Inc., Farmingdale, N.Y.) for 3 minutes. The cell lysate was centrifuged at 1500 g for 10 minutes and the supernatant was collected to measure ALP activity. To account for changes in ALP activity according to cell number differences, total protein levels were measured using bicinchoninic acid (BCA) protein assay kit with bovine serum albumin as the standard protein, and enzyme activity was expressed as a percentage against the control group without the compound treatment.

The subject of series [11] is A549 human lung cancer cell line. The series can be described thus: MTT assay, cancer cells A549. Type of series: cell-based. The settings on record: MTT assay, 48 hours, A549.
Description: as §1, §2, §3, §4

For series [12], the system named is HT1080 human fibrosarcoma cell line. The series is described as follows: MTT assay, cancer cells HT1080. The settings on record: 48 hours. Format: cell-based.
Description: as §1, §2, §3, §4

Series [13] relates to HepG2 human liver cancer cell line. The series is described as follows: MTT assay, cancer cells HepG2. Format: cell-based. The settings on record: for LD63 Cancer cell HepG2: MTT assay, 48 hours.
Description: as §1, §2, §3, §4

For the compound `NCCCC(O)(P(=O)(O)O)P(=O)(O)O` [Fosamax, reference compound], in series [1] (Osteoclast), the IC50 is 4 µM.
For `CC(=O)/C=C/c1ccc(O)c(F)c1` [KP6, (E)-4-(3-fluoro-4-hydroxyphenyl)-3-buten-2-one], in series [1] (Osteoclast), the IC50 stood at 6 µM. The “LD50 Normal cells RAW264.7” value in [2] (rat, 48 h) is 1110 ± 48 µM. The “LD63 Cancer cell T24” value in series [3] was determined as 3610 ± 130 µM. Moreover, in series [4] (mouse, 48 h), the “LD50 Normal cells NTH3T3” value is >5000 µM. In addition, in [5], the “LD63 Cancer cell AGS” value turned out to be 336 ± 3.9 µM. Besides, the “Cytotoxicity, B16F10 cells” value in [6] was determined as 421 ± 41 µM. The “LD63 Cancer cell PC3” value in [7] turned out to be 205 ± 13 µM. The “LD63 Cancer cell Caki-1” value in [8] came out at 449 ± 40 µM. In [9], the “LD63 Cancer cell HCT116” value is 490 ± 38 µM. In [10], the “ALP activity / osteoblast activation versus control” value is “no activity on activating osteoblast”. In addition, the “% Activation of ALP activity” value is 102 ± 0.2% in series [10] (10 μM) and 100 ± 0.8% in series [10] (50 μM). For the same compound, the “LD63 Cancer cell A549” value in series [11] worked out at 901 ± 28 µM. In addition, the “LD63 Cancer cell HT1080” value in [12] is given as >5,000 μM.
With `Cc1ccc(/C=C/C(N)=O)cc1O` [KP7, (E)-3-(3-hydroxy-4-methylphenyl)acrylamide], the “LD50 Normal cells RAW264.7” value in series [2] (rat, 48 h) was >5000 µM. The “LD63 Cancer cell T24” value in [3] was 1040 ± 360 µM. In series [4] (mouse, 48 h), the “LD50 Normal cells NTH3T3” value was >5000 µM. Also, the “LD63 Cancer cell AGS” value in [5] came out at 329 ± 14 µM. Further, in [6], the “Cytotoxicity, B16F10 cells” value was 1210 ± 110 µM. Also, the “LD63 Cancer cell PC3” value in series [7] stood at 394 ± 140 µM. The “LD63 Cancer cell Caki-1” value in series [8] was 361 ± 16 µM. Further, in series [13] (HepG2 hepatocellular carcinoma cells), the “cancer cell inhibitory activity versus Osmundacetone” value is listed as “significantly better cancer cell inhibitory activity”. For the same compound, in series [13], the “LD63 Cancer cell HepG2” value was 379 ± 38 µM. In addition, the “inhibitory activity better than Osmundacetone” value in series [9] (HP116 colorectal cancer cells) came out at 2 times. Moreover, the “LD63 Cancer cell HCT116” value in series [9] came out at 315 ± 19 µM. In series [11], the “LD63 Cancer cell A549” value stood at 989 ± 50 µM. The “LD63 Cancer cell HT1080” value in series [12] was 309 ± 10 µM.
Turning to `CC(=O)/C=C/c1ccc(O)c(O)c1` [Osmundacetone, reference compound], the IC50 in series [1] stood at 8 µM. Besides, the “LD50 Normal cells RAW264.7” value in [2] (MTT assay, 48 hours, RAW264.7) stood at 529 ± 41 µM. Besides, the “LD63 Cancer cell T24” value in series [3] was 2000 ± 250 µM. Besides, in [4] (MTT assay, 48 hours, NTH3T3), the “LD50 Normal cells NTH3T3” value is >5000 µM. Further, in [5], the “LD63 Cancer cell AGS” value was determined as 56.1 ± 2.1 µM. For the same compound, the “Cytotoxicity, B16F10 cells” value in [6] is 64.9 ± 59 µM. For the same compound, the “LD63 Cancer cell PC3” value in [7] was determined as 60.6 ± 14 µM. Further, the “LD63 Cancer cell Caki-1” value in [8] stood at 695 ± 14 µM. Besides, the “LD63 Cancer cell HepG2” value in series [13] was >5000 µM. For the same compound, the “LD63 Cancer cell HCT116” value in [9] was 689 ± 27 µM. The figures for the “% Activation of ALP activity” value in [10] (10 μM) and in [10] (50 μM) were 115 ± 9.4% and 279 ± 61%, respectively. Besides, the “LD63 Cancer cell A549” value in series [11] is >5000 µM. In addition, the “LD63 Cancer cell HT1080” value in series [12] is >5000 µM.
As for `COc1ccc(/C=C/C(C)=O)cc1O` [KP5, (E)-4-(3-hydroxy-4-methoxyphenyl)-3-buten-2-one], in series [1] (Osteoclast), the IC50 was 1 µM. Moreover, the “LD50 Normal cells RAW264.7” value in series [2] (rat, 48 h) came out at 261 ± 79 µM. Moreover, in series [3], the “LD63 Cancer cell T24” value was >5000 µM. Moreover, in [4] (mouse, 48 h), the “LD50 Normal cells NTH3T3” value is >5000 µM. In addition, the “LD63 Cancer cell AGS” value in [5] amounted to 181 ± 15 µM. In series [6], the “Cytotoxicity, B16F10 cells” value came to 441 ± 58 µM. Besides, the “LD63 Cancer cell PC3” value in series [7] is 291 ± 5.7 µM. Further, the “LD63 Cancer cell Caki-1” value in series [8] was 409 ± 11 µM. The “LD63 Cancer cell HCT116” value in series [9] came out at 491 ± 72 µM. Also, the “ALP activity / osteoblast activation versus control” value in series [10] was “higher ALP activity”. Besides, the “% Activation of ALP activity” value in series [10] (10 μM) was found to be 103 ± 1.1%; in series [10] (50 μM), 175 ± 0.3%. Also, the “LD63 Cancer cell A549” value in series [11] came out at 1890 ± 210 µM. The “LD63 Cancer cell HT1080” value in series [12] came out at 381 ± 49 µM.
